From ChEMBL document CHEMBL1201862, “PubChem BioAssay data set” (2004)
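Growth conditions: 96-well plates. Treatment: test compound, 48 hours, 5 concentrations. Analysis: linear interpolation between bracketing concentrations; unreached endpoints set to highest concentration. GI50 marks 50% less growth.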 Active and inactive are the calls of the source. Rule as the data show it: active = GI50 up to about 1.1 µM and inactive = higher.

Assays:
Assay in all cases: DTP human tumour cell line panel, 48 h
OVCAR-4 = tested on: OVCAR-4
ACHN = tested on: ACHN
MDA-MB-231 = tested on: MDA-MB-231
SF-539 = tested on: SF-539
SN12C = tested on: SN12C
TK-10 = tested on: TK-10
MDA-N = tested on: MDA-N
UACC-257 = tested on: UACC-257
NCI-H23 = tested on: NCI-H23
HT-29 = tested on: HT-29
HCT-15 = tested on: HCT-15
K562 = tested on: K562
OVCAR-5 = tested on: OVCAR-5
NCI-H522 = tested on: NCI-H522
COLO 205 = tested on: COLO 205
SF-268 = tested on: SF-268
HL-60 = tested on: HL-60
UACC-62 = tested on: UACC-62
CAKI-1 = tested on: CAKI-1
MOLT-4 = tested on: MOLT-4

Measured: GI50

COc1cc2c(cc1O)C1CC(CC3CCCCN31)OC(=O)/C=C\c1ccc(O)c-2c1 (stereo not given)
inactive: OVCAR-4 27.3 µM | ACHN 31.6 µM | MDA-MB-231 24.3 µM | SF-539 15.8 µM | SN12C 37.2 µM | TK-10 26.4 µM | MDA-N 35.9 µM | UACC-257 19.1 µM | NCI-H23 64 µM | HT-29 20.5 µM | K562 28 µM | OVCAR-5 58.3 µM | NCI-H522 26.5 µM | COLO 205 25.2 µM | SF-268 24.9 µM | HL-60 27.8 µM | UACC-62 18 µM | CAKI-1 23.1 µM | MOLT-4 20 µM
36.9 µM: HCT-15

C[C@]12C[C@H](c3ccccc3)Nc3ccccc3N1C(c1ccccc1)=NO2
inactive: OVCAR-4 52 µM | ACHN 64.1 µM | MDA-MB-231 > 100 µM | SF-539 > 100 µM | SN12C > 100 µM | TK-10 > 100 µM | MDA-N 74.1 µM | UACC-257 81.5 µM | NCI-H23 62.1 µM | HT-29 55.2 µM | K562 33.8 µM | OVCAR-5 > 100 µM | NCI-H522 > 100 µM | COLO 205 78.7 µM | SF-268 > 100 µM | HL-60 74.6 µM | UACC-62 85.1 µM | CAKI-1 64.3 µM | MOLT-4 24.5 µM
67.9 µM: HCT-15

Cn1c([N+](=O)[O-])cnc1CN1CCN(CCO)CC1
inactive: OVCAR-4 > 100 µM | ACHN > 100 µM | MDA-MB-231 > 100 µM | SF-539 > 100 µM | SN12C > 100 µM | TK-10 > 100 µM | MDA-N > 100 µM | UACC-257 > 100 µM | NCI-H23 > 100 µM | HT-29 > 100 µM | K562 > 100 µM | OVCAR-5 > 100 µM | NCI-H522 > 100 µM | COLO 205 > 100 µM | SF-268 > 100 µM | HL-60 > 100 µM | UACC-62 > 100 µM | CAKI-1 > 100 µM | MOLT-4 > 100 µM
> 100 µM: HCT-15

Cn1c2ccccc2c(=NNc2ccc(S(=O)(=O)N=C(N)N)cc2)c2ccccc21
10.2 µM: HCT-15
inactive: OVCAR-4 3.37 µM | ACHN 4.55 µM | MDA-MB-231 11.4 µM | SF-539 13.8 µM | SN12C 8.63 µM | TK-10 7.6 µM | MDA-N 12.4 µM | UACC-257 15.5 µM | NCI-H23 9.64 µM | HT-29 3.8 µM | K562 4.39 µM | OVCAR-5 6.24 µM | NCI-H522 3.82 µM | COLO 205 5.53 µM | SF-268 5.75 µM | HL-60 14.1 µM | UACC-62 15.4 µM | CAKI-1 10.8 µM | MOLT-4 3.31 µM

O=c1c(C(c2ccc(/C=C/c3ccccc3)cc2)c2c(O)oc3cc(O)ccc3c2=O)c(O)oc2cc(O)ccc12
> 100 µM: HCT-15
inactive: OVCAR-4 > 100 µM | ACHN > 100 µM | MDA-MB-231 > 100 µM | SF-539 > 100 µM | SN12C 48.4 µM | TK-10 > 100 µM | MDA-N 53.5 µM | UACC-257 > 100 µM | NCI-H23 > 100 µM | HT-29 > 100 µM | K562 91.4 µM | OVCAR-5 > 100 µM | NCI-H522 52 µM | COLO 205 > 100 µM | SF-268 33.7 µM | HL-60 27.5 µM | UACC-62 > 100 µM | CAKI-1 55.3 µM | MOLT-4 20.9 µM

N/C(=N\NC(=O)c1nc2ccccc2s1)c1ccccn1
inactive: ACHN 2.87 µM | MDA-MB-231 14 µM | SF-539 3.59 µM | SN12C 1.61 µM | TK-10 7.8 µM | MDA-N 11.7 µM | UACC-257 15.6 µM | NCI-H23 9.86 µM | HT-29 4.08 µM | K562 4.5 µM | OVCAR-5 5.89 µM | NCI-H522 13.8 µM | COLO 205 4.73 µM | SF-268 6.87 µM | UACC-62 3.95 µM | CAKI-1 1.55 µM | MOLT-4 1.29 µM
active: OVCAR-4 0.706 µM | HL-60 0.452 µM
2.56 µM: HCT-15

CCN(CC)Cc1ccc(Nc2c3ccccc3nc3ccccc23)cc1
1 µM: HCT-15
inactive: OVCAR-4 2.57 µM | MDA-MB-231 1.66 µM | SF-539 1.8 µM | SN12C 2.31 µM | TK-10 6.14 µM | MDA-N 1.53 µM | UACC-257 1.71 µM | NCI-H23 1.99 µM | HT-29 1.91 µM | K562 1.6 µM | OVCAR-5 2.17 µM | NCI-H522 1.41 µM | COLO 205 1.71 µM | SF-268 2.82 µM | HL-60 2.79 µM | UACC-62 1.81 µM | CAKI-1 1.41 µM
active: ACHN 0.364 µM | MOLT-4 0.955 µM

O=C(Cn1nnc(-c2ccccc2)n1)N/N=C/c1cn(Cc2ccc(Cl)cc2Cl)c2ccccc12
inactive: OVCAR-4 > 100 µM | ACHN > 100 µM | MDA-MB-231 > 100 µM | SF-539 > 100 µM | SN12C > 100 µM | TK-10 > 100 µM | MDA-N > 100 µM | UACC-257 > 100 µM | NCI-H23 > 100 µM | HT-29 > 100 µM | K562 > 100 µM | OVCAR-5 > 100 µM | NCI-H522 43.1 µM | COLO 205 > 100 µM | SF-268 31.8 µM | HL-60 39.6 µM | UACC-62 > 100 µM | CAKI-1 > 100 µM | MOLT-4 > 100 µM
> 100 µM: HCT-15

Cc1c(C)c(C)c(CSC(=N)N)c(C)c1C
16.2 µM: HCT-15
inactive: OVCAR-4 15.6 µM | ACHN 16.6 µM | MDA-MB-231 14.1 µM | SF-539 15.7 µM | SN12C 16.3 µM | TK-10 14.8 µM | MDA-N 16.9 µM | UACC-257 14.2 µM | NCI-H23 16.5 µM | HT-29 12.5 µM | K562 12.2 µM | OVCAR-5 14.5 µM | NCI-H522 16.3 µM | COLO 205 14.9 µM | SF-268 18.3 µM | HL-60 8.57 µM | UACC-62 11.9 µM | CAKI-1 11.5 µM | MOLT-4 15.5 µM

O=C(NC(=O)c1ccccc1)OC(c1ccccc1)C1CO1 (stereo not given)
inactive: OVCAR-4 > 100 µM | ACHN > 100 µM | MDA-MB-231 > 100 µM | SF-539 > 100 µM | SN12C > 100 µM | TK-10 > 100 µM | MDA-N > 100 µM | UACC-257 > 100 µM | NCI-H23 > 100 µM | HT-29 > 100 µM | K562 > 100 µM | OVCAR-5 > 100 µM | NCI-H522 > 100 µM | COLO 205 > 100 µM | SF-268 > 100 µM | HL-60 > 100 µM | UACC-62 > 100 µM | CAKI-1 > 100 µM | MOLT-4 > 100 µM
> 100 µM: HCT-15

CO[C@H]1C=C[C@]23c4cc5c(cc4CN(CC2O)[C@@H]3C1)OCO5 (stereo not given in full)
inactive: OVCAR-4 1.78 µM | MDA-MB-231 2.67 µM | SF-539 2.59 µM | SN12C 3.3 µM | TK-10 3.18 µM | MDA-N 3.93 µM | UACC-257 3.15 µM | NCI-H23 4.49 µM | HT-29 2.06 µM | K562 2.04 µM | OVCAR-5 5.47 µM | NCI-H522 1.72 µM | COLO 205 2.58 µM | SF-268 2.17 µM | UACC-62 2.18 µM | CAKI-1 3.59 µM
active: ACHN 0.678 µM | HL-60 0.179 µM | MOLT-4 0.873 µM
1.91 µM: HCT-15

Oc1c(CN2CCCC2)ccc2cccnc12
2.84 µM: HCT-15
inactive: OVCAR-4 14.9 µM | ACHN 3.55 µM | MDA-MB-231 51.3 µM | SF-539 24 µM | SN12C 19.3 µM | TK-10 12.4 µM | MDA-N 39.4 µM | UACC-257 29.3 µM | NCI-H23 27 µM | HT-29 27.5 µM | K562 > 33.5 µM | OVCAR-5 31.6 µM | NCI-H522 27.6 µM | COLO 205 25.9 µM | SF-268 24 µM | HL-60 4.94 µM | UACC-62 26.2 µM | CAKI-1 6.04 µM | MOLT-4 20.1 µM

CC1CC2OC(=O)C(C)C2CC2(C)C(OC3OC(CO)C(O)C(O)C3O)OCCC12 (stereo not given)
inactive: OVCAR-4 > 100 µM | ACHN > 100 µM | MDA-MB-231 > 100 µM | SF-539 > 100 µM | SN12C > 100 µM | TK-10 > 100 µM | MDA-N > 100 µM | UACC-257 > 100 µM | NCI-H23 > 100 µM | HT-29 > 100 µM | K562 > 100 µM | OVCAR-5 > 100 µM | NCI-H522 > 100 µM | COLO 205 > 100 µM | SF-268 > 100 µM | HL-60 > 100 µM | UACC-62 16.9 µM | CAKI-1 > 100 µM | MOLT-4 > 100 µM
> 100 µM: HCT-15

CC(=O)OC1CCn2c1nc1c2C(=O)C=C(N2CC2)C1=O (stereo not given)
0.403 µM: HCT-15
inactive: MDA-MB-231 1.91 µM
active: OVCAR-4 0.0746 µM | ACHN 0.0354 µM | SF-539 0.22 µM | SN12C 0.65 µM | TK-10 0.292 µM | MDA-N 0.332 µM | UACC-257 0.292 µM | NCI-H23 0.269 µM | HT-29 0.693 µM | K562 0.394 µM | OVCAR-5 0.774 µM | NCI-H522 0.0112 µM | COLO 205 0.0697 µM | SF-268 0.185 µM | HL-60 0.17 µM | UACC-62 0.0697 µM | CAKI-1 0.032 µM | MOLT-4 0.033 µM
